Laboratory results: ChEMBL document CHEMBL3045943, “Novel N-aryl(alkaryl)-2-[(3-R-2-oxo-2H-[1,2,4]triazino[2,3-c]quinazoline-6-yl)thio]acetamides: synthesis, cytotoxicity, anticancer activity, COMPARE analysis and docking” (2013)

Legend:
Assay type in all cases: functional
SF-295 = experiment: Cytotoxicity against Homo sapiens (human) SF295 cells after 48 hr by SRB assay; conditions: SF-295, 48 h
A498 [1] = experiment: Cytotoxicity against Homo sapiens (human) A498 cells after 48 hr by SRB assay; conditions: A498, 48 h
IGROV-1 = experiment: Cytotoxicity against Homo sapiens (human) IGROV1 cells after 48 hr by SRB assay; conditions: IGROV-1, 48 h
PC-3 = experiment: Cytotoxicity against Homo sapiens (human) PC3 cells assessed as cell growth at 10 uM after 48 hr by SRB assay relative to control; conditions: PC-3, 48 h, read-out: Activity
BT-549 = experiment: Cytotoxicity against Homo sapiens (human) BT549 cells after 48 hr by SRB assay; conditions: BT-549, 48 h
A498 [2] = experiment: Cytotoxicity against Homo sapiens (human) A498 cells assessed as cell growth at 10 uM after 48 hr by SRB assay relative to control; conditions: A498, 48 h, read-out: Activity
UO-31 [3] = experiment: Cytotoxicity against Homo sapiens (human) UO31 cells assessed as cell growth at 10 uM after 48 hr by SRB assay relative to control; conditions: UO-31, 48 h, read-out: Activity
UO-31 [4] = experiment: Cytotoxicity against Homo sapiens (human) UO31 cells after 48 hr by SRB assay; conditions: UO-31, 48 h
SF-539 = experiment: Cytotoxicity against Homo sapiens (human) SF539 cells after 48 hr by SRB assay; conditions: SF-539, 48 h
A549 = experiment: Cytotoxicity against Homo sapiens (human) A549 cells after 48 hr by SRB assay; conditions: A549, 48 h
CAKI-1 = experiment: Cytotoxicity against Homo sapiens (human) Caki1 cells after 48 hr by SRB assay; conditions: CAKI-1, 48 h
HCT-116 = experiment: Cytotoxicity against Homo sapiens (human) HCT116 cells after 48 hr by SRB assay; conditions: HCT-116, 48 h
SK-MEL-5 [5] = experiment: Cytotoxicity against Homo sapiens (human) SK-MEL-5 cells after 48 hr by SRB assay; conditions: SK-MEL-5, 48 h
HOP-92 [6] = experiment: Cytotoxicity against Homo sapiens (human) HOP92 cells assessed as cell growth at 10 uM after 48 hr by SRB assay relative to control; conditions: HOP-92, 48 h, read-out: Activity
UACC-62 = experiment: Cytotoxicity against Homo sapiens (human) UACC62 cells after 48 hr by SRB assay; conditions: UACC-62, 48 h
HT-29 = experiment: Cytotoxicity against Homo sapiens (human) HT-29 cells assessed as cell growth at 10 uM after 48 hr by SRB assay relative to control; conditions: HT-29, 48 h, read-out: Activity
OVCAR-8 = experiment: Cytotoxicity against Homo sapiens (human) OVCAR8 cells assessed as cell growth at 10 uM after 48 hr by SRB assay relative to control; conditions: OVCAR-8, 48 h, read-out: Activity
MCF7 = experiment: Cytotoxicity against Homo sapiens (human) MCF7 cells assessed as cell growth at 10 uM after 48 hr by SRB assay relative to control; conditions: MCF7, 48 h, read-out: Activity
RXF 393 = experiment: Cytotoxicity against Homo sapiens (human) RXF393 cells assessed as cell growth at 10 uM after 48 hr by SRB assay relative to control; conditions: RXF 393, 48 h, read-out: Activity
HOP-92 [7] = experiment: Cytotoxicity against Homo sapiens (human) HOP92 cells after 48 hr by SRB assay; conditions: HOP-92, 48 h
M14 = experiment: Cytotoxicity against Homo sapiens (human) M14 cells after 48 hr by SRB assay; conditions: M14, 48 h
TK-10 = experiment: Cytotoxicity against Homo sapiens (human) TK10 cells after 48 hr by SRB assay; conditions: TK-10, 48 h
Malme-3M = experiment: Cytotoxicity against Homo sapiens (human) MALME-3M cells assessed as cell growth at 10 uM after 48 hr by SRB assay relative to control; conditions: read-out: Activity
MDA-MB-468 = experiment: Cytotoxicity against Homo sapiens (human) MDA-MB-468 cells assessed as cell growth at 10 uM after 48 hr by SRB assay relative to control; conditions: MDA-MB-468, 48 h, read-out: Activity
OVCAR-4 = experiment: Cytotoxicity against Homo sapiens (human) OVCAR4 cells assessed as cell growth at 10 uM after 48 hr by SRB assay relative to control; conditions: OVCAR-4, 48 h, read-out: Activity
NCI-H522 = experiment: Cytotoxicity against Homo sapiens (human) NCI-H522 cells assessed as cell growth at 10 uM after 48 hr by SRB assay relative to control; conditions: NCI-H522, 48 h, read-out: Activity
U-251 = experiment: Cytotoxicity against Homo sapiens (human) U251 cells assessed as cell growth at 10 uM after 48 hr by SRB assay relative to control; conditions: U-251, 48 h, read-out: Activity
SK-MEL-5 [8] = experiment: Cytotoxicity against Homo sapiens (human) SK-MEL-5 cells assessed as cell growth at 10 uM after 48 hr by SRB assay relative to control; conditions: SK-MEL-5, 48 h, read-out: Activity
SNB-75 = experiment: Cytotoxicity against Homo sapiens (human) SNB75 cells assessed as cell growth at 10 uM after 48 hr by SRB assay relative to control; conditions: SNB-75, 48 h, read-out: Activity
SF-268 = experiment: Cytotoxicity against Homo sapiens (human) SF268 cells after 48 hr by SRB assay; conditions: SF-268, 48 h
HOP-62 = experiment: Cytotoxicity against Homo sapiens (human) HOP62 cells assessed as cell growth at 10 uM after 48 hr by SRB assay relative to control; conditions: HOP-62, 48 h, read-out: Activity
DU-145 = experiment: Cytotoxicity against Homo sapiens (human) DU145 cells after 48 hr by SRB assay; conditions: DU-145, 48 h
[9] = read-out: pLC50 (the source's name) (converted)

With `COc1ccccc1CNC(=O)CSc1nc2ccccc2c2nc(=O)c(-c3ccccc3)nn12` the GI50 (SF-295) was 2.45 µM, the CC50 (SF-295; [9]) was > 100 µM and the TGI (SF-295; read-out: pTGI (converted)) was 8.51 µM. For the same molecule, the GI50 (A498 [1]) was 1.17 µM, the LC50 (A498 [1]) was > 100 µM and the TGI (A498 [1]; read-out: pTGI (converted)) was 4.07 µM. For the same molecule, the GI50 (IGROV-1) was 3.02 µM, the CC50 (IGROV-1; [9]) was > 100 µM and the TGI (IGROV-1; read-out: pTGI) was > 100 µM. The growth at 10 µM (PC-3) was 35.6%, the GI50 (BT-549) was 2.14 µM and the LC50 (BT-549) was 74.1 µM. For the same molecule, the TGI (BT-549; read-out: pTGI (converted)) was 3.98 µM, the growth at 10 µM (A498 [2]) was -23.1% and the growth at 10 µM (UO-31 [3]) was 43.8%. The GI50 (UO-31 [4]) was 1.86 µM, the LC50 (UO-31 [4]) was > 100 µM and the TGI (UO-31 [4]; read-out: pTGI) was > 100 µM. The GI50 (SF-539) was 1.82 µM, the CC50 (SF-539; [9]) was > 100 µM and the TGI (SF-539; read-out: pTGI) was > 100 µM. The GI50 (A549) was 2.34 µM, the CC50 (A549; [9]) was > 100 µM and the TGI (A549; read-out: pTGI) was > 100 µM. The GI50 (CAKI-1) was 1.91 µM, the CC50 (CAKI-1; [9]) was > 100 µM and the TGI (CAKI-1; read-out: pTGI) was > 100 µM. For the same molecule, the GI50 (HCT-116) was 2.69 µM, the CC50 (HCT-116; [9]) was > 100 µM and the TGI (HCT-116; read-out: pTGI) was > 100 µM. For the same molecule, the GI50 (SK-MEL-5 [5]) was 2.69 µM, the LC50 (SK-MEL-5 [5]) was > 100 µM and the TGI (SK-MEL-5 [5]; read-out: pTGI) was > 100 µM. The growth at 10 µM (HOP-92 [6]) was 26.2%.

With `COc1ccc(-c2nn3c(SCC(=O)Nc4ccccc4Cl)nc4ccccc4c3nc2=O)cc1` the GI50 (UACC-62) was 2.75 µM, the CC50 (UACC-62; [9]) was > 100 µM and the TGI (UACC-62; read-out: pTGI (converted)) was 67.6 µM. It also gave a growth at 10 µM (HT-29) of 5.16%, a growth at 10 µM (OVCAR-8) of 31.5% and a growth at 10 µM (MCF7) of 32.8%. For the same molecule, the growth at 10 µM (RXF 393) was 37.4%, the GI50 (HOP-92 [7]) was 1.82 µM and the CC50 (HOP-92 [7]; [9]) was 42.7 µM. The TGI (HOP-92 [7]; read-out: pTGI (converted)) was 9.12 µM, the GI50 (M14) was 2.63 µM and the CC50 (M14; [9]) was > 100 µM. The TGI (M14; read-out: pTGI (converted)) was 100 µM, the GI50 (TK-10) was 2.19 µM and the CC50 (TK-10; [9]) was 33.9 µM. For the same molecule, the TGI (TK-10; read-out: pTGI (converted)) was 7.24 µM, the growth at 10 µM (Malme-3M) was 18.8% and the growth at 10 µM (MDA-MB-468) was 44.3%. It also gave a growth at 10 µM (OVCAR-4) of 45%, a growth at 10 µM (NCI-H522) of 36.5% and a growth at 10 µM (U-251) of -22.6%. The growth at 10 µM (SK-MEL-5 [8]) was 41.4%, the growth at 10 µM (SNB-75) was 55.6% and the GI50 (SF-268) was 2.95 µM. It also gave a CC50 (SF-268; [9]) of 72.4 µM, a TGI (SF-268; read-out: pTGI (converted)) of 13.8 µM and a growth at 10 µM (HOP-62) of 30.3%. The GI50 (DU-145) was 1.38 µM, the CC50 (DU-145; [9]) was > 100 µM and the TGI (DU-145; read-out: pTGI) was > 100 µM.
